Results as given in publication PMC8769378, “Underlining the Importance of Peripheral Protic Functional Groups to Enhance the Proton Exchange of Gd-Based MRI Contrast Agents” (Inorganic Chemistry, 2021).
Marks after values point to notes of the source that are not given here.

Experiments:
[1] = not fitted: fixed to the value determined for GdHPADO3A ref 7; cited from earlier work
[2] = Acid-assisted dissociation kinetics of Gd^III complexes followed by ^1H NMR relaxometry
From the text: In order to investigate the kinetic inertness of the Gd^III complex, the dissociation reactions of GdL2 were followed by ^1H NMR relaxometry (21 MHz and 298 K) in the presence of large acid excess ([HCl] = 0.01–1.0 M) to guarantee the pseudo-first-order kinetic conditions.
The kinetic inertness of the GdL2 was characterized by the rates of the dissociation reactions taking place in 0.01–1.0 M HCl solution. The dissociation reactions of the GdL2 were followed by measuring the longitudinal relaxation time of H2O protons (T1) with a Stelar relaxometer connected to a Bruker WP80 NMR electromagnet adapted to variable-field measurements (15–80 MHz proton Larmor frequency). The temperature was controlled with a Stelar VTC-91 airflow heater equipped with a calibrated copper–constantan thermocouple (uncertainty of ±0.1 °C). Measures were carried out at 21 MHz and 25 °C. The longitudinal relaxation time (T1) was measured with the “inversion recovery” method (180° – τ – 90°) by using 16 different τ values with a typical 90° pulse width of 6.5 μs, 4 scans. The measurements were performed with a 1 mM solution of the GdL2 complex. The relaxivity values were given as r1 = 1/T1p + 1/T1w where T1p and T1w are the relaxation times of the bulk water protons in the presence and absence of GdL2. The pseudo-first-order rate constants (kd) were calculated by fitting the relaxation rate (r1 = 1/T1p) data to eq 4. […] 4 where rr and rv are the relaxivity values of the reactants and the product (Gd^3+: r1p = 12.85 (2) mM^–1 s^–1, 21 MHz, 25 °C) and rt is the measured relaxivity at reaction time t. The temperature was maintained at 25 °C, and the ionic strength of the solutions was kept constant at [H^+] ≤ 0.15 M, [HCl] + [NaCl] = 0.15 M. The calculation of the kinetic parameters was performed by the fitting of the absorbance–time and relaxation rate–time data pairs with the Micromath Scientist computer program (version 2.0, Salt Lake City, UT).
Kinetic inertness of GdL2
In order to investigate the kinetic inertness of GdL2, the dissociation reactions of GdL2 were followed
by 1H-NMR relaxometry in the presence of large acid excess ([HCl]= 0.01 – 1.0 M) to guarantee the
pseudo-first-order kinetic conditions. The R1obs values as a function of time for the dissociation
In the presence of HCl excess, the dissociation of GdL2 can be treated as a pseudo-first-order process
and the rate of the reaction can be expressed by Eq. (S7)
where kd is a pseudo-first-order rate constant, [GdL]t and [GdL]tot are the concentrations of the GdL
species at time t and the total concentration of the complex, respectively. The rates of the dissociation
reactions were determined at different concentrations of HCl ([HCl]=0.01 – 1.0 M).
The proton assisted dissociation
of GdL2 might occur by the equilibrium formation of a protonated *Gd(H2L2) intermediate (Eq.
(S8)), which dissociates spontaneously (Eq. (S9)).
Gd(HL2) + H Gd(H2L2) (S8)

[3] = Stability constants of Gd^III complexes (out-of-cell pH potentiometry); type: physicochemical
Method: The stability and protonation constants of Ca^2+, Zn^2+, and Cu^2+ complexes formed with the L1 ligand were determined by pH potentiometric titration. The metal-to-ligand concentration ratio was 1:1 (the concentration of the ligand was generally 0.002 M). The protonation constants of the GdL1 and GdL2 complexes were determined using pH potentiometry by titrating the preprepared complexes from pH = 3.0 to pH = 12 for GdL2 and from pH = 4.0 to pH = 12 for GdL1 with 0.2 M NaOH. The stability constants of GdL2 were determined by the “out-of-cell” technique because of the slow formation reaction. The pH range of the complexation equilibria and the time needed to reach the equilibria were determined by relaxometry for the formation of GdL2. […] For the calculation of the stability constants of GdL2, besides the protonation constants of ligands, the stability constants of the diprotonated *Gd(H2L2) out-of-cage complexes (considered as intermediates) were also used as fixed values, which were calculated from the pH potentiometric titration curve of the Gd^3+–L2 system obtained in the pH range 1.7–4.0.
For the pH measurements and titrations, the Metrohm 888 Titrando titration workstation Metrohm-6.0234.110 combined electrode was used. […] For the calculation of [H^+] from the measured pH values, the method proposed by Irving et al. was used as follows.[34] […]

| kd at pH = 7.4 ([2]; calculated from acid-assisted dissociation only, pH = 7.4, 298 K, comparators from literature constants) | K^HGdL ([2]; protonation constant of GdHL from kinetic data, 298 K) | GdL (log KGdL, stability constant) ([3]; I = 0.15 M NaCl, 298 K) | GdH2L (log K, stability constant of the protonated *Gd(H2L) out-of-cage intermediate) ([3]; KGd(H2L)=[Gd(H2L)]/[Gd3+][H2L], 0.15 M NaCl, 25 °C) | Compound | τM [1] | k1 (acid-catalyzed dissociation rate constant) ([2]; k1 = kGdH2L × K^HGd(HL), [HCl] = 0.01–1.0 M, 298 K) |
| --- | --- | --- | --- | --- | --- | --- |
| 9.01 × 10^–12 s^–1 | 0.5 ± 0.1 (GdHL) M^–1 | – | – | O=C([O-])CN1CCN(CC(=O)[O-])CCN(CC(O)C(=O)O)CCN(CC(=O)[O-])CC1.[Gd+3] (stereo not drawn) [GdL2] | 20 ^c ns | (2.3 ± 0.1) × 10^–4 M^–1 s^–1 |
| – | – | 19.26 (3) | 6.73 (3) | O=C(O)CN1CCN(CC(=O)O)CCN(C[C@@H](O)C(=O)O)CCN(CC(=O)O)CC1 [L2, (R)2,2′,2″-(10-(2-Carboxy-2-hydroxyethyl)-1,4,7,10-tetraazacyclododecane-1,4,7-triyl) Triacetic Acid] | – | – |
